The results in this text go back to PMC12693182, “Synthesis and QSAR Studies of Claramine Derivatives, a New Class of Broad-Spectrum Antimicrobial Agents” (Molecules, 2025).

A word on the MIC: it is the least concentration at which growth counts as inhibited. The IC50 is the concentration that gives 50% inhibition.

≈ marks a conversion by molar mass, not a printed value. Read-outs that look alike come from different tables or passages of the source.

One experiment relates to S. aureus 340. The experiment in a line: MIC, broth microdilution. As to conditions: for MIC: Staphylococcus aureus, 340, 24 h. It counts as cell-based, Staphylococcus aureus. As for the experimental part:
(§1) Antimicrobial activity of the compounds was studied by determination of minimal inhibitory concentrations (MIC) according to the NCCLS guidelines M7-A2 using the microbroth dilution methods. The bacteria strains were grown on trypticase soy agar (Becton Dickinson) at 37 °C for 24 h. Inocula were prepared in TCE (tryptone 0.1%, […], wt/vol) by ajusting the turbidity at 623 nm to obtain 1–3 10^5 CFU/mL.
(§2) Antimicrobial activities of the compounds were determined by using a broth microdilution method performed in sterile 96-well microplates. All compounds were solubilized in water at a concentration of 10 mM and were transferred to each microplate well in order to obtain a two-fold serial dilution in 100 µL of broth and 100 µL of inoculum containing 2–6 10^5 CFU of each bacterium were added to each well. Some wells were reserved for positive controls and inoculum viability.
(In general: In broth dilution the organism is exposed to a series of concentrations in liquid medium.)

The subject of another experiment is S. aureus ATCC 25923. Nature of the experiment: MIC, broth microdilution. As to conditions: Staphylococcus aureus, ATCC25923, 24 h, ATCC strain. In kind it is cell-based, Staphylococcus aureus. As for the experimental part:
as §1, §2

Experiment [1] concerns Chinese hamster Ovary cells (CHO-K1). Nature of the experiment: Cytotoxicity assay (WST-1 / Neutral Red). In kind it is cell-based. As to conditions: 24-h incubation; for IC50: Cricetulus griseus, 24 h. The method, then: The cytotoxic activities of compounds were assessed on Chinese hamster Ovary cells (CHO-K1) provided from ATCC-LGC Standards Sarl (Molsheim, France). Cells were maintained in Mc Coy’s 5A (CHO) medium supplemented with 10% bovine calf serum, 2 mM glutamine, and 100 U mL^−1/10 µg mL^−1 penicillin/streptomycin mixtures. For the cytotoxicity experiments, they were seeded in 96-well plates and incubated at 37 °C in humidified atmosphere containing 5% CO2 overnight, then concentrations of compounds were incorporated in triplicate cultures. After a 24-h incubation period at 37 °C, cells were submitted to three successive washes in phosphate buffer saline (PBS) and cell viability was evaluated by two different vital dyes: • i. A first set of cell cultures was incubated in PBS containing 10% WST-1 for 30 min at 37 °C, 5% CO2. Cell viability was evaluated by the assessment of WST-1 absorbance at 450 nm in a microplate spectrophotometer. • ii. A second set of cell cultures was placed into Neutral Red medium (50 μg mL^−1 Neutral Red in complete medium) and incubated for 3 h at 37 °C, 5% CO2. Then the Neutral Red medium was removed and the distaining solution (50% ethanol, 1% acetic acid, 49% distilled water; 50 µL per well) was added into the wells. The plates were shaken for 15–20 min at room temperature in the dark. Cell viability was evaluated by the assessment of absorbance at 540 nm in a microplate spectrophotometer.
Results were expressed as percentages of cell viability about the control (culture medium-only), which corresponded to 100% cell viability. Dose-response curves were calculated by non-linear regression analysis with TableCurve 2D software (V 5.0.1) (Systat Software Inc., San Jose, CA, USA). The Inhibitory Concentration 50% (IC50) was defined as the concentration of compounds that induced a 50% decrease of viable cells.
Background: Tetrazolium dyes change colour on reduction, which living cells bring about.

The subject of experiment [2] is Gram-positive and Gram-negative human and veterinary reference strains. The experiment in a line: MIC against the panel of Gram-positive and Gram-negative reference strains. It counts as cell-based. As to conditions: for MIC: over several or all of the tested pathogens; for Therapeutic Ratio (TR): IC50 (CHO)/MIC, over several of the tested pathogens.
Text: Typically, cytotoxicity was expressed as the half maximal inhibitory concentration (IC50), defined as the concentration of a compound that decreases cell viability by 50% relative to untreated cells. This parameter provides a quantitative measure of a compound’s toxic potential toward mammalian cells. To facilitate data interpretation, we defined the Therapeutic Ratio (TR) as the ratio of IC50 (µg/mL) to MIC (µg/mL). This dimensionless parameter provides a straightforward measure of antibacterial selectivity, allowing direct comparison of cytotoxicity and antibacterial potency. A high TR value indicates compounds with strong antibacterial activity at concentrations far below their cytotoxic threshold, whereas a TR close to unity reflects poor selectivity and limited therapeutic potential. […] Within the Claramine A series, variations in IC50 strongly impacted TR values (Figure 5).
as §1, §2

Another experiment deals with E. coli ATCC 25922. The experiment in a line: MIC, broth microdilution. It counts as cell-based, Escherichia coli. As to conditions: Escherichia coli, ATCC25922, 24 h, ATCC strain. As for the experimental part:
as §1, §2

The test system of the next experiment is E. coli 1956. The experiment in a line: MIC, broth microdilution. It counts as cell-based, Escherichia coli. As to conditions: Escherichia coli, 1956, 24 h. As for the experimental part: as §1, §2
In another experiment the test system is E. faecalis ATCC29212. The experiment in a line: MIC, broth microdilution. It counts as cell-based, Enterococccus faecalis. As to conditions: Enterococcus faecalis, ATCC29212, 24 h, ATCC strain, read-out: MIC E. faecalis 29212. The method, then:
as §1, §2

In a further experiment the test system is P. aeruginosa ATCC 27853. Nature of the experiment: MIC, broth microdilution. It counts as cell-based, Pseudomonas aeruginosa. As to conditions: Pseudomonas aeruginosa, ATCC27853, 24 h, ATCC strain. As for the experimental part: as §1, §2
Another experiment has as its system P. aeruginosa 1051575. Nature of the experiment: MIC, broth microdilution. As to conditions: Pseudomonas aeruginosa, 1051575, 24 h, 24 h. In kind it is cell-based, Pseudomonas aeruginosa. The method, then: as §1, §2
A further experiment deals with S. intermedius 1051997. The experiment in a line: MIC, broth microdilution. It counts as cell-based, Staphylococcus intermedius. As to conditions: Staphylococcus intermedius, 1051997, 24 h, 24 h. As for the experimental part: as §1, §2
For experiment [3], the system named is S. aureus 340 and P. aeruginosa 1051575. Nature of the experiment: MIC against S. aureus and P. aeruginosa strains (Figure 6). As to conditions: range over both strains, C-24 methyl ester series. It counts as cell-based. The method, then: as §1, §2
The mark [4] stands for this setting: Homo sapiens, 24 h, read-out: MIC.

`CC(C)OC(=O)CCC(C)C1CCC2C3CCC4CC(NCCCNCCCCNCCCN)CCC4(C)C3CC(O)C12C` (centres unmarked) [Claramine A01, 3-Spermino Isopropyl Deoxycholate]: the “MIC S. aureus 340” value against S. aureus 340 (24 h) turned out to be 2 µg/mL (≈ 3.23 µM). The MIC in the experiment with S. aureus 340 is under 4 µg/mL; in the experiment with S. aureus ATCC 25923, 2 µg/mL (≈ 3.23 µM); in experiment [2] (setting [4]), under 15 µg/mL; in [2], “increased membrane permeabilization and concomitant disruption of proton homeostasis”; against E. coli ATCC 25922, 4 µg/mL (≈ 6.46 µM); in the experiment on E. coli 1956, 15 µg/mL (≈ 24.2 µM). Moreover, the MIC with E. faecalis ATCC29212 amounted to 30 µg/mL (≈ 48.5 µM); in the experiment on P. aeruginosa ATCC 27853, 8 µg/mL (≈ 12.9 µM); in the experiment on P. aeruginosa 1051575 it was 15 µg/mL (≈ 24.2 µM); against S. intermedius 1051997, 8 µg/mL (≈ 12.9 µM). In addition, in [1], the “IC50 CHO” value was 43 µg/mL (≈ 69.5 µM). This compound displayed an IC50 in experiment [1] of over 35 µg/mL. Also, the “Therapeutic Ratio (TR)” value in experiment [2] is reported as over 5.
Take `CC(C)OC(=O)CCC(C)C1CCC2C3CCC4CC(NCCCNCCCNCCCN)CCC4(C)C3CC(O)C12C` (centres unmarked) [Claramine A02]: the minimum inhibitory concentration (MIC) against S. aureus 340 was 2 µg/mL (≈ 3.31 µM); against S. aureus ATCC 25923, 4 µg/mL (≈ 6.61 µM); in experiment [2] (setting [4]), under 15 µg/mL; in the experiment on E. coli ATCC 25922, 8 µg/mL (≈ 13.2 µM); against E. coli 1956 it was 15 µg/mL (≈ 24.8 µM); in the experiment with E. faecalis ATCC29212 it was 8 µg/mL (≈ 13.2 µM). Besides, the values for the MIC in the experiment with P. aeruginosa ATCC 27853, against P. aeruginosa 1051575 and against S. intermedius 1051997 were 8 µg/mL (≈ 13.2 µM), 8 µg/mL (≈ 13.2 µM) and 2 µg/mL (≈ 3.31 µM), respectively. In addition, half-maximal inhibition in [1] (IC50) required 51 µg/mL (≈ 84.3 µM). For the same compound, in experiment [2], the “Therapeutic Ratio (TR)” value is reported as over 5.
Turning to `CC(C)OC(=O)CCC(C)C1CCC2C3CCC4CC(NCCCNCCCCN)CCC4(C)C3CC(O)C12C` (centres unmarked) [Claramine A03], the minimal inhibitory concentration (MIC) in the experiment on S. aureus 340 is 2 µg/mL (≈ 3.56 µM); in the experiment on S. aureus ATCC 25923 it was 7 µg/mL (≈ 12.5 µM); in experiment [2] (setting [4]), under 15 µg/mL; in the experiment on E. coli ATCC 25922 it was 14 µg/mL (≈ 24.9 µM); in the experiment with E. coli 1956 it was 14 µg/mL (≈ 24.9 µM); in the experiment on E. faecalis ATCC29212 it was 14 µg/mL (≈ 24.9 µM). The MIC against P. aeruginosa ATCC 27853 came out at 14 µg/mL (≈ 24.9 µM); against P. aeruginosa 1051575, 14 µg/mL (≈ 24.9 µM); against S. intermedius 1051997, 4 µg/mL (≈ 7.12 µM). The 50% inhibitory concentration (IC50) in [1] is 73 µg/mL (≈ 130 µM). The “Therapeutic Ratio (TR)” value in experiment [2] is over 5.
On to `COC(=O)CCC(C)C1CCC2C3CCC4CC(NCCCNCCCNCCCN)CCC4(C)C3CC(O)C12C` (centres unmarked) [Claramine A06], for which the MIC in [3] was in the range of 2 to 4 µg/mL (≈ 3.47 to 6.93 µM).
With `COC(=O)CCC(C)C1CCC2C3CCC4CC(NCCCNCCCN)CCC4(C)C3CC(O)C12C` (centres unmarked) [Claramine A08], the minimum inhibitory concentration (MIC) in the experiment on S. aureus 340 was 3 µg/mL (≈ 5.77 µM); in the experiment on S. aureus ATCC 25923, 2 µg/mL (≈ 3.85 µM); in experiment [2] (setting [4]), under 15 µg/mL; with E. coli ATCC 25922, 3 µg/mL (≈ 5.77 µM); in the experiment on E. coli 1956, 13 µg/mL (≈ 25 µM); with E. faecalis ATCC29212, 3 µg/mL (≈ 5.77 µM). Besides, the minimum inhibitory concentration (MIC) with P. aeruginosa ATCC 27853 was found to be 3 µg/mL (≈ 5.77 µM); with P. aeruginosa 1051575 it was 3 µg/mL (≈ 5.77 µM); against S. intermedius 1051997, 0.4 µg/mL (≈ 0.77 µM). The compound further registered a 50% inhibitory concentration (IC50) in experiment [1] of 21 µg/mL (≈ 40.4 µM). In addition, the “Therapeutic Ratio (TR)” value in [2] is over 5.
Turning to `COC(=O)CCC(C)C1CCC2C3CCC4CC(NCCCCN)CCC4(C)C3CC(O)C12C` (centres unmarked) [Claramine A11], the minimal inhibitory concentration (MIC) in [3] is 6 to 50 µg/mL (≈ 12.6 to 105 µM).
With `COC(=O)CCC(C)C1CCC2C3CCC4CC(NCCCCCN)CCC4(C)C3CC(O)C12C` (centres unmarked) [Claramine A12], the minimal inhibitory concentration (MIC) in experiment [3] lay in the range of 6 to 50 µg/mL (≈ 12.2 to 102 µM).
